In US12268683B2, “Compounds and methods for synergistic activation of M channels” (THE REGENTS OF THE UNIVERSITY OF CALIFORNIA, priority 2018, dated 2025):
“Also recorded” adds a separate entry of the source. Read-outs that look alike come from different tables or passages of the source.

Legend:
KCNQ5 = KCNQ5 (Homo sapiens, UniProt Q9NR82); assay: TEVC of homomeric KCNQ5 expressed in Xenopus oocytes; format: cell-based
Excerpt: cRNA transcripts encoding human KCNA1, KCNQ1, KCNQ2, KCNQ3, KCNQ4, or KCNQ5 were generated by in vitro transcription using the T7 polymerase message machine kit (Thermo Fisher Scientific), after vector linearization, from cDNA sub-cloned into plasmids incorporating X. laevis β-globin 5′ and 3′ UTRs flanking the coding region to enhance translation and cRNA stability. cRNA was quantified by spectrophotometry. Mutant cDNAs were generated by site-directed mutagenesis using a QuikChange kit according to manufacturer's protocol (Stratagene, San Diego, Calif.) and corresponding cRNAs prepared as above. Defolliculated stage V and VI X. laevis oocytes (Ecocyte Bioscience, Austin, Tex.) were injected with Kv channel a subunit cRNAs (10 ng total per oocyte). Oocytes were incubated at 16° C. in Barth's saline solution (Ecocyte) containing penicillin and streptomycin, with daily washing, for 3-5 days prior to two-electrode voltage-clamp (TEVC) recording.
TEVC recording was performed at room temperature with an OC-725C amplifier (Warner Instruments, Hamden, Conn.) and pClamp10.2 software (Molecular Devices, Sunnyvale, Calif.) 3-5 days after cRNA injection as described in the section above. Oocytes were placed in a small-volume oocyte bath (Warner) and viewed with a dissection microscope. Chemicals were sourced from Sigma. Bath solution was (in mM): 96 NaCl, 4 KCl, 1 MgCl2, 1 CaCl2. 10 HEPES (pH 7.6). […] MTX (DMSO), sorbic acid (ethanol), and glutaconic acid (molecular grade H2O) were stored at −20° C. as 1 M stocks. Oleamide was stored as a 1 mM stock in ethanol at 4° C. Palmitic acid was conjugated with bovine serum albumin as a 1 mM stock and stored at −20° C. All compounds were diluted to working concentrations each experimental day. All compounds were introduced to the recording bath via gravity perfusion at a constant flow of 1 ml/min for 3 min prior to recording. Pipettes were of 1-2 MΩ resistance when filled with 3 M KCl. Currents were recorded in response to pulses between −80 and +40 mV at 20 mV intervals, or a single pulse to +40 mV, from a holding potential of −80 mV, to yield current-voltage relationships, current magnitude, and for quantifying activation rate. TEVC data analysis was performed with Clampfit10.2 (Molecular Devices) and Graphpad Prism software (GraphPad, San Diego, Calif., USA); values are stated as mean±SEM. Normalized tail currents were plotted versus prepulse voltage and fitted with a single Boltzmann function:
(§1) cRNA transcripts encoding human KCNQ2, KCNQ3, KCNQ4, KCNQ5 (Kv7.2-Kv7.5) were generated by in vitro transcription using the T7 polymerase mMessage mMachine kit (Thermo Fisher Scientific), after vector linearization, from cDNA sub-cloned into plasmids incorporating Xenopus laevis β-globin 5′ and 3′ UTRs flanking the coding region to enhance translation and cRNA stability. cRNA was quantified by spectrophotometry. Mutant KCNQ2 and KCNQ3 cDNAs were generated with site-directed mutagenesis using a QuikChange kit according to the manufacturer's protocol (Stratagene, San Diego, Calif.) and corresponding cRNAs prepared as above. Defolliculated stage V and VI Xenopus laevis oocytes (Ecocyte Bioscience, Austin, Tex.) were injected with KCNQ channel α subunit cRNAs (5-10 ng). The oocytes were incubated at 16° C. in Barth's saline solution (Ecocyte) containing penicillin and streptomycin, with daily washing, for 2-5 days prior to two-electrode voltage-clamp (TEVC) recording.
TEVC recording was performed at room temperature using a OC-725C amplifier (Warner Instruments, Hamden, Conn.) and pClamp8 software (Molecular Devices, Sunnyvale, Calif.) 2-5 days after cRNA injection as described in the section above. The oocytes were placed in a small-volume oocyte bath (Warner) and viewed with a dissection microscope. Unless otherwise stated, chemicals were sourced from Sigma. Bath solution was (in mM): 96 NaCl, 4 KCl, 1 MgCl2, 1 CaCl2, 10 HEPES (pH 7.6).

KCNQ2/KCNQ3-W265L = KCNQ2/KCNQ3-W265L (Homo sapiens, UniProt O43525+O43526, W265L); assay: TEVC of KCNQ2/KCNQ3-W265L channels; format: cell-based
Excerpt: as §1
TEVC recording was performed at room temperature using a OC-725C amplifier (Warner Instruments, Hamden, Conn.) and pClamp8 software (Molecular Devices, Sunnyvale, Calif.) 2-5 days after cRNA injection as described in the section above. The oocytes were placed in a small-volume oocyte bath (Warner) and viewed with a dissection microscope. Unless otherwise stated, chemicals were sourced from Sigma. Bath solution was (in mM): 96 NaCl, 4 KCl, 1 MgCl2, 1 CaCl2, 10 HEPES (pH 7.6). […] The drugs were introduced into the recording bath by gravity perfusion at a constant flow of 1 ml per minute for 3 minutes prior to recording. Pipettes were of 1-2 MΩ resistance when filled with 3 M KCl. Currents were recorded in response to pulses between −80 mV and +40 mV at 20 mV intervals, or a single pulse to +40 mV, from a holding potential of −80 mV, to yield current-voltage relationships, current magnitude, and for quantifying activation rate. Deactivation was recorded at −80 mV after a single pulse to +40 mV, from a holding potential of −80 mV. Electrophysiology data analysis was performed with Clampfit (Molecular Devices) and Graphpad Prism software (GraphPad, San Diego, Calif., USA); values are stated as mean±SD. Raw or normalized tail currents were plotted versus prepulse voltage and fitted with a single Boltzmann function:
As previously described (12), we generated cRNA transcripts encoding human KCNA1, KCNE1, KCNE2, KCNE3, KCNQ1, KCNQ2, KCNQ3, KCNQ4 or KCNQ5 by in vitro transcription using the T7 polymerase mMessage mMachine kit (Thermo Fisher Scientific), after vector linearization, from cDNA sub-cloned into plasmids incorporating Xenopus laevis β-globin 5′ and 3′ UTRs flanking the coding region to enhance translation and cRNA stability. We quantified cRNA by spectrophotometry. […]

Question: With `NCC(=O)O` [glycine, reference compound] as the compound, how does the “effect on KCNQ5 (in words)” value (KCNQ5) read?
Answer: no effects

Question: With `CCCCCCCCC/C=C/C=O` [(E)-2-dodecenal] as the compound, how does the “maximal shift in ΔV0.5activation” value (KCNQ2/KCNQ3-W265L; (E)-2-dodecenal) read?
Answer: −9 mV

Question: What about the EC50 (KCNQ2/KCNQ3-W265L; ΔV0.5activation, read-out: EC50 of (E)-2-dodecenal) of the same compound?
Answer: 270 ± 20 nM

Question: How did the “effect on KCNQ2/KCNQ3-W265L (in words)” value (KCNQ2/KCNQ3-W265L) turn out when `CS(=O)(=O)N(CC(=O)O)c1cccc(F)c1` [3FMSG] was run?
Answer: dependent on KCNQ3-W265; also recorded: eliminated effects of 3FMSG

Question: What about the EC50 (KCNQ5; Example 4, read-out: EC50 of KCNQ5 activation) of the same compound?
Answer: 171 ± 112 nM

Question: Which results are given for `NCC1(CC(=O)O)CCCCC1` [gabapentin, reference compound]?
Answer: effect on KCNQ2/KCNQ3-W265L (in words) (KCNQ2/KCNQ3-W265L): insensitive; effect on KCNQ5 (in words) (KCNQ5): activated; maximal fold increase in KCNQ5 current (KCNQ5; −60 mV): 3 fold; EC50 (KCNQ5; −60 mV, read-out: EC50 of KCNQ5 activation by gabapentin): 1.9 nM

Question: With `CC(=O)c1c(O)c(C)c(O)c(Cc2c(O)c3c(c(C(=O)/C=C/c4ccccc4)c2O)OC(C)(C)C=C3)c1O` [MTX, mallotoxin] as the compound, how does the “shift of midpoint voltage of KCNQ5 activation” value (KCNQ5; MTX 30 μM) read?
Answer: −14 mV

Question: What about the KCNQ5 current fold-increase (KCNQ5; −60 mV, 100 μM) of the same compound?
Answer: eight-fold

Question: And the EC50 (KCNQ5; −60 mV, read-out: EC50 of KCNQ5 activation)?
Answer: 67100 nM
